This note sets out measurements from patent publication US6750348B1, “Chemokine receptor binding heterocyclic compounds” (AnorMED, Inc., priority 1999, dated 2004).

Type in all cases: cell-based
The subject of assay [1] is SDF-1α induced Ca flux in SUP-T1 cells. Briefly: Inhibition of SDF-1α induced Ca flux in SUP-T1 cells (FLIPR). The note with it: Homo sapiens, read-out: inhibited SDF-1α induced Ca flux; for inhibition at 20 µg/mL: at 20 μg/mL. As for the experimental part: (§1) Loading dye: Fluo-3, AM (Molecular Probes F-1241) is dissolved in anhydrous DMSO and stored frozen in aliquots. To increase the solubility of the dye in the loading medium, 10% (w/v) pluronic acid (Molecular Probes F-127) is added to the Fluo-3 stock solution immediately before use.
(§2) HBSS+20 mM Hepes buffer+0.2% BSA, pH 7.4. HBSS 10× [(w/o phenol red and sodium bicarbonate (Gibco 14 065-049)]; Hepes buffer 1M (Gibco 15 630-056), BSA (Sigma A3675). The flux buffer is vacuum-filtered and stored refrigerated for a maximum of 5 days. Before use in the experiment, the buffer is warmed at 37° C. in a waterbath.
(§3) The test compounds were diluted in flux buffer and added to 4 wells of a black microplate (4 parallel measurements per compound).
(§4) The chemokines are diluted in flux buffer to concentrations that are 4-fold higher than the desired concentrations required for stimulation of the cells (i.e. 2.5 nM for SDF-1α and 0.6 nM for RANTES). The chemokines were added to untreated 96-well Sero well compound plates (International Medical, Sterilin code 611F96). In the negative control well's (baseline monitoring), flux buffer is added instead of chemokine. As a positive control to check for dye loading efficiency, 20 μM digitonin (final concentration) was also included. The agonist plate was incubated in the FLIPR (37° C.) for 15-30 min.
SUP-T1 cells were centrifuged at room temperature (RT) and re-suspended in loading medium (RPMI-1640 containing 2% FBS and 4 μM Fluo-3, AM). The cells were incubate at room temperature for 45 min. then washed twice in flux buffer then incubated in flux buffer at room temperature for 10 min. The cells were centrifuged and re-suspended in flux buffer at a density of 3×10^6 cells per mL. […] The microplate is then gently centrifuged at room temperature. Homogeneous spreading of the cells on the bottom of the microplate wells was then confirmed with a microscope and the microplate was incubated in the FLIPR (37° C.) for 10 min. prior to testing.
(§5) The FLIPR settings (camera exposure time and laser power) are adjusted to obtain initial fluorescence values between 8,000 and 10,000 units. After monitoring a 20 second-baseline, the agonist (chemokine) (50 μL) is added by automatic pipettor with black pipette tips. Fluorescence is measured simultaneously in all wells of the microplate every 2 seconds (first 2 min) and thereafter every 6 seconds (additional 2 min). The average ca-flux measured in each set of 4 identical wells (one test compound) was calculated by the FLIPR software.
The compounds of the current invention were tested for inhibition of SDF-1α induced Ca flux in SUP-T1 cells using the method described above.

The subject of the next assay is HIV-1 NL4.3 or IIIB. Kind of assay: Inhibition of HIV-1 (NL4.3 or IIIB) replication in MT-4 cells (MTT). The note with it: Human immunodeficiency virus 1, IIIB. As for the experimental part:
Compounds were tested for their ability to inhibit HIV-1 replication in MT-4 cells or PBMC's (peripheral blood mononucleocytes) using published procedures (for example, see: Labrosse et al. J. Virol. 1998, 6381-6388; Simmons et al. J. Virol. 1998, 8453-8457; Donzella et al. Nature Medicine 1998, 72-77; Schols et al. J. Exp. Med. 1997, 1383-1388; De Clercq et al. Antiviral Res. 1997, 147-156; and Bridger et al. U.S. patent application Ser. No. 09/111,895). In addition to the above references, experimental methods for performing anti-viral assays can also be found in: Bridger et al. J. Med. Chem. 1995, 38, 366-378; Bridger et al. J. Med. Chem. 1996, 39, 109-119; Bridger et al. U.S. Pat. No. 5,698,546; Bridger et al. U.S. Pat. No. 5,583,131; Bridger et al. U.S. Pat. No. 5,817,807; De Clercq et al. Antimicrob. Agents and Chemother. 1994, 38, 668-674.
1. The HIV-1 strains NL4.3 and IIIB are T-tropic strains that exclusively use CXCR4 as the co-receptor for entry into cells. MT-4 Cells express CXCR4 but not CCR5.
Inhibition of HIV-1 NL4.3 (or IIIB) replication assays were performed as previously described (Bridger et al. J. Med. Chem. 1999, 42, 3971-3981; De Clercq et al. Proc. Natl. Acad. Sci, 1992, 89, 5286-5290; De Clercq et al. Antimicrob. Agents Chemother. 1994, 38, 668-674; Bridger et al. J. Med. Chem. 1995, 38, 366-378). Anti-HIV activity and cytotoxicity measurements were carried out in parallel. They were based on the viability of MT-4 cells that had been infected with HIV in the presence of various concentrations of the test compounds. After the MT-4 cells were allowed to proliferate for 5 days, the number of viable cells was quantified by a tetrazolium-based calorimetric 3-(4,5-dimethylthiazol-2-yl)-2,5-diphenyltetrazolium bromide (MTT) procedure in 96-well microtrays. In all of these assays, viral input (viral multiplicity of infection, MOI) was 0.01, or 100 times the 50% cell culture infective dose (CCID50). The EC50 was defined as the concentration required to protect 50% of the virus-infected cells against viral cytopathicity.

In assay [2] the test system is RANTES induced Ca flux in U87.CCR5 cells. Briefly: Inhibition of RANTES induced Ca flux in U87.CCR5 cells (FLIPR). The note with it: U-87-CCR5, at 20 μM, read-out: inhibited RANTES induced Ca flux. As for the experimental part:
as §1, §2, §3, §4, §5
U87.CCR5 cells were seeded into the black microplates (Costar 3603) on the day before the experiment. The culture medium was removed from the cells and 100 μL of loading medium (DMEM+10% FBS+4 μM Fluo-3, AM) was added to each well and the plate was incubate at 37° C. for 45 min. The loading medium was then removed an the cells were washed twice with flux buffer using the CELL WASH microplate washer (Labsystems) followed by incubation in flux buffer for 10 min. at room temperature (the washing procedure was repeated twice). Finally, the wash buffer was removed from the microplate wells and 150 μL of the test compound, diluted in flux buffer to the desired concentration. The microplate was then incubated in the FLIPR drawer for 10 min. prior to testing. Measurements were performed as described above.
The compounds of the current invention were tested for inhibition of RANTES induced Ca flux in U87.CCR5 cells.

[3] abbreviates: MT4, read-out: EC50, inhibition of HIV-1 NL4.3 or IIIB replication.

Where two headings read alike, the source gives them in different places.

For orientation: EC50 means the concentration that produces a half-maximal response. For `N=C(N)NCCN(Cc1ccc(CNCc2ccccn2)cc1)C1CCCc2cccnc21` (centres unmarked) [Example 51, N-(2-pyridinylmethyl)-N′-(2-guanidinoethyl)-N′-(5,6,7,8-tetrahydro-8-quinolinyl)-1,4-benzenedimethanamine], in assay [1], the inhibition at 20 µg/mL was greater than 20%. Also, the concentration for a half-maximal effect (EC50) with HIV-1 NL4.3 or IIIB (setting [3]) was less than 20 µg/mL.

Consider `c1ccc(CNCc2ccc(CN(Cc3ccccn3)CC3CCc4cccnc43)cc2)nc1` (centres unmarked) [Example 89, N,N′-bis(2-pyridinylmethyl)-N′[(6,7-dihydro-5H-cyclopenta[b]pyridin-7-yl)methyl]-1,4-benzenedimethanamine], for which the inhibition at 20 µg/mL in assay [1] is greater than 20%. In addition, the EC50 in the assay with HIV-1 NL4.3 or IIIB (setting [3]) is less than 20 µg/mL.

For the molecule `COc1ccc2c(c1)CC(NCc1ccc(CNCc3ccccn3)cc1)CC2` (centres unmarked) [Example 35, N-(2-pyridinylmethyl)-N′-(7-methoxy-1,2,3,4-tetrahydro-2-naphthalenyl)-1,4-benzenedimethanamine], the inhibition at 20 µg/mL in assay [1] is greater than 20%. The EC50 in the assay on HIV-1 NL4.3 or IIIB (setting [3]) is less than 20 µg/mL.

For `c1ccc(CCN(Cc2cccc(CNCc3ccccn3)c2)Cc2ccccn2)cc1` [Example 109, N-[-(phenyl)ethyl]-N,N′-bis(2-pyridinylmethyl)-1,3-benzenedimethanamine], in assay [2], the inhibition at 20 µM is greater than 20%.

On to `c1ccc(CNCc2ccc(CN(Cc3ccccn3)C3CCCc4cccnc43)cc2)nc1` (centres unmarked) [Example 84, N,N′-bis(2-pyridinylmethyl)-N′-(5,6,7,8-tetrahydro-8-quinolinyl)-1,4-benzenedimethanamine], for which, in assay [1], the inhibition at 20 µg/mL was greater than 20%. Further, the EC50 in the assay with HIV-1 NL4.3 or IIIB (setting [3]) was less than 20 µg/mL.

Take `O=C(NCCN(Cc1ccc(CNCc2ccccn2)cc1)C1CCCc2cccnc21)Nc1ccccc1` (centres unmarked) [Example 55, N-(2-pyridinylmethyl)-N′-[2-(phenylureido)ethyl]-N′-(5,6,7,8-tetrahydro-8-quinolinyl)-1,4-benzenedimethanamine]: in assay [1], the inhibition at 20 µg/mL is greater than 20%. Also, in the assay with HIV-1 NL4.3 or IIIB (setting [3]), the EC50 is less than 20 µg/mL.

As for `c1ccc(CNCc2ccc(CN(Cc3nccs3)C3CCCc4cccnc43)cc2)nc1` (centres unmarked) [Example 28, N-(2-pyridinylmethyl)-N′-[2-thiazolylmethyl]-N′-(5,6,7,8-tetrahydro-8-quinolinyl)-1,4-benzenedimethanamine], in assay [1], the inhibition at 20 µg/mL is greater than 20%. In the assay with HIV-1 NL4.3 or IIIB (setting [3]), the EC50 was less than 20 µg/mL.

For the molecule `c1ccc(CNCc2ccc(CN(Cc3ccccn3)C3CCc4cccnc43)cc2)nc1` (centres unmarked) [Example 86, N,N′-bis(2-pyridinylmethyl)-N′-(6,7-dihydro-5H-cyclopenta[b]pyridin-7-yl)-1,4-benzenedimethanamine], the inhibition at 20 µg/mL in assay [1] is greater than 20%. Also, the EC50 in the assay with HIV-1 NL4.3 or IIIB (setting [3]) is less than 20 µg/mL.

As to `c1ccc(CNCc2ccc(CN(Cc3ccccn3)C3CCCCc4cccnc43)cc2)nc1` (centres unmarked) [Example 85, N,N′-bis(2-pyridinylmethyl)-N′-(6,7,8,9-tetrahydro-5H-cyclohepta[b]pyridin-9-yl)-1,4-benzenedimethanamine], the inhibition at 20 µg/mL in assay [1] is greater than 20%. Besides, the EC50 in the assay with HIV-1 NL4.3 or IIIB (setting [3]) is less than 20 µg/mL.

For the molecule `c1ccc(CNCc2cccc(CN(Cc3ccccn3)Cn3ccnc3)c2)nc1` [Example 118, N-[1H-imidazol-1-ylmethyl]-N,N′-bis(2-pyridinylmethyl)-1,3-benzenedimethanamine], the inhibition at 20 µM in assay [2] was greater than 20%.

For `Oc1cccc2c1CC(NCc1ccc(CNCc3ccccn3)cc1)CC2` (centres unmarked) [Example 41, N-(2-pyridinylmethyl)-N′-(8-hydroxy-1,2,3,4-tetrahydro-2-naphthalenyl)-1,4-benzenedimethanamine], the inhibition at 20 µg/mL in assay [1] is greater than 20%. Besides, in the assay with HIV-1 NL4.3 or IIIB (setting [3]), the EC50 is less than 20 µg/mL.

`c1ccc(CNCc2ccc(CN(Cc3ncc[nH]3)C3CCCc4cccnc43)cc2)nc1` (centres unmarked) [Example 15, N-(2-pyridinylmethyl)-N′-(1H-imidazol-2-ylmethyl)-N′-(5,6,7,8-tetrahydro-8-quinolinyl)-1,4-benzenedimethanamine]: the inhibition at 20 µg/mL in assay [1] was greater than 20%. Besides, the concentration giving a half-maximal response (EC50) in the assay on HIV-1 NL4.3 or IIIB (setting [3]) is less than 20 µg/mL.

For the molecule `c1ccc(CNCc2ccc(CN(Cc3ccc4ccccc4n3)C3CCCc4cccnc43)cc2)nc1` (centres unmarked) [Example 18, N-(2-pyridinylmethyl)-N′-(2-quinolinylmethyl)-N′-(5,6,7,8-tetrahydro-8-quinolinyl)-1,4-benzenedimethanamine], the inhibition at 20 µg/mL in assay [1] was greater than 20%. Further, the EC50 with HIV-1 NL4.3 or IIIB (setting [3]) was less than 20 µg/mL.

Consider `c1ccc(CNCc2ccc(CNc3cccc4c3NCCC4)cc2)nc1` [Example 9, N-(2-pyridinylmethyl)-N′-(1,2,3,4-tetrahydro-8-quinolinyl)-1,4-benzenedimethanamine], for which the inhibition at 20 µg/mL in assay [1] is greater than 20%.

On to `c1ccc(CNCc2ccc(CNC3CCc4cccnc4C3)cc2)nc1` (centres unmarked) [Example 45, N-(2-pyridinylmethyl)-N′-(5,6,7,8-tetrahydro-7-quinolinyl)-1,4-benzenedimethanamine], for which the inhibition at 20 µg/mL in assay [1] is greater than 20%. Further, the EC50 with HIV-1 NL4.3 or IIIB (setting [3]) is less than 20 µg/mL.

In the case of `CC(C)CNCCN(Cc1ccc(CNCc2ccccn2)cc1)C1CCCc2cccnc21` (centres unmarked) [Example 48, N-(2-pyridinylmethyl)-N′-[2-(isobutylamino)ethyl]-N′-(5,6,7,8-tetrahydro-8-quinolinyl)-1,4-benzenedimethanamine], the inhibition at 20 µg/mL in assay [1] was greater than 20%. Also, the EC50 with HIV-1 NL4.3 or IIIB (setting [3]) is less than 20 µg/mL.

As to `c1ccc(CNCc2ccc(CN(Cc3ccc[nH]3)C3CCCc4cccnc43)cc2)nc1` (centres unmarked) [Example 26, N-(2-pyridinylmethyl)-N′-[2-pyrrolylmethyl]-N′-(5,6,7,8-tetrahydro-8-quinolinyl)-1,4-benzenedimethanamine], in assay [1], the inhibition at 20 µg/mL was greater than 20%.

`Cc1nc[nH]c1CN(Cc1ccc(CNCc2ccccn2)cc1)Cc1ccccn1` [Example 166, N-[(4-methyl)-1H-imidazol-5-ylmethyl]-N,N′-bis(2-pyridinylmethyl)-1,4-benzenedimethanamine]: the inhibition at 20 µM in assay [1] (at 20 μM) is greater than 20%. The 50% effective concentration (EC50) in the assay on HIV-1 NL4.3 or IIIB (MT4, read-out: EC50, inhibition of HIV-1 NLA.3 or IIIB replication) is less than 20 µM.
